Our source for the IC50 values is patent US8263632B2, “Aminopyridine derivatives having Aurora A selective inhibitory action” (Vertex Pharmaceuticals Incoporated, priority 2009, dated 2012).

Molecules are shown by their SMILES. Read-outs that look alike come from different tables or passages of the source.

The term IC50 denotes the concentration at which inhibition is half-maximal.

One test has as its target T1, Aurora B (Homo sapiens, UniProt Q96GD4).
T1 construct: histidine tag (N); made in house; host or cells: Escherichia coli BL21-CodonPlus(DE3)-RIL
As to the kind of experiment: Aurora B inhibitory action (33P-ATP kinase assay, Kemptide substrate). In kind it is biochemical. Particulars: 100 μM unlabeled ATP, 100 μM substrate peptide, 30° C. for 20 minutes. From the text:
Aurora B Inhibitory Action
(1) Purification of Aurora B
cDNA of Aurora B having histidine tag fused at the amino terminal was integrated into an expression vector, which was then highly expressed in Escherichia coli BL21-CodonPlus(DE3)-RIL cells. The Escherichia coli cells were recovered and solubilized, and then the histidine-tagged […] protein was adsorbed onto a nickel chelate column and eluted from the column with imidazole. The active fraction was desalted with a desalting column to give a pure enzyme.
(2) Measurement of activity of Aurora B
For measurement of the activity of Aurora B, the substrate used was Kemptide (Leu-Arg-Arg-Ala-Ser-Leu-Gly) (SEQ. ID. NO.: 1), a synthetic peptide purchased from Sigma-Aldrich, Inc. [Certificate of analysis (Upstate, Inc.)].
Reaction was conducted by a partial modification of the method of activity measurement for Aurora A. The amount of the reaction liquid was 21.1 μL, and the composition of the reaction buffer (R2 buffer) was 50 mM Tris-hydrochloride buffer (pH 7.4)/15 mM magnesium acetate/0.2 mM ethylenediamine-N,N,N′,N′-tetraacetate (EDTA). To this, purified Aurora B, 100 μM of a substrate peptide, 100 μM of unlabeled adenosine triphosphate (ATP) and 1 μCi of [γ-^33P] labeled ATP (2,500 Ci/mmole or more) were added, and the mixture was reacted at 30° C. for 20 minutes. Then, 10 μL of 350 mM phosphate buffer was added to the reaction system to stop the reaction. The substrate peptide was adsorbed on a P81 paper filter 96-well plate and then washed with 130 mM phosphate buffer for several times. The radiation activity of the peptide was measured with a liquid scintillation counter. The [γ-^33P] labeled ATP was purchased from Amersham Biosciences Co., Ltd.

For the next test, the target named is T2, Aurora A (Homo sapiens, UniProt O14965).
T2 construct: histidine tag (N); made in house; host or cells: Escherichia coli BL21-CodonPlus(DE3)-RIL
T2 sequence (O14965 1-403): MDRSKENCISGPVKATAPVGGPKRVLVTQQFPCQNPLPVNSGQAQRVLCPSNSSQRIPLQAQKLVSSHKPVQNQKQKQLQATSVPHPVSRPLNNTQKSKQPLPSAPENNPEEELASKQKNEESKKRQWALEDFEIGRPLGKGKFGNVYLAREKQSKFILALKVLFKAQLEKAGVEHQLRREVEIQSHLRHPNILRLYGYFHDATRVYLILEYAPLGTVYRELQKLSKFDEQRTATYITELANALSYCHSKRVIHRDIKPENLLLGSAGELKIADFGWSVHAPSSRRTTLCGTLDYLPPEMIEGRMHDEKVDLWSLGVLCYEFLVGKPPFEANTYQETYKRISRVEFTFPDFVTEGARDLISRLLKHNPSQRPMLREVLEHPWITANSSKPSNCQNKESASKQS
The experiment in a line: Aurora A inhibitory action (33P-ATP kinase assay, Kemptide substrate). In kind it is biochemical. The protocol:
The Escherichia coli cells were recovered and solubilized, and then the histidine-tagged Aurora A protein was adsorbed onto a nickel chelate column and eluted from the column with imidazole. The active fraction was desalted with a desalting column to give a pure enzyme.
Then, 10 μL of 350 mM phosphate buffer was added to the reaction system to stop the reaction. The substrate peptide was adsorbed on a P81 paper filter 96-well plate and then washed with 130 mM phosphate buffer for several times. The radiation activity of the peptide was measured with a liquid scintillation counter. The [γ-^33P] labeled ATP was purchased from Amersham Biosciences Co., Ltd.

[1] abbreviates: 20 μM unlabeled ATP, 100 μM substrate peptide, 30° C. for 20 minutes, read-out: Inhibitory activity for Aurora A (IC50).

T1 sequence (Q96GD4 whole entry): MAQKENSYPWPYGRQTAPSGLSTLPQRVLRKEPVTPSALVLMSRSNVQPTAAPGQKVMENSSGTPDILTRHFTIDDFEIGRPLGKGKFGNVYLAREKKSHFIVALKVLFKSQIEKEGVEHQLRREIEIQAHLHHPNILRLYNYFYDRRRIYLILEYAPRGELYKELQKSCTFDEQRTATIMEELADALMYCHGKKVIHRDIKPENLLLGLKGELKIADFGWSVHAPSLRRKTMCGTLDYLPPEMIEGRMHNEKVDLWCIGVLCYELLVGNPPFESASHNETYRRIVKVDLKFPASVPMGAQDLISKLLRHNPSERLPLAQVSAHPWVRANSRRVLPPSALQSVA

As to `CO[C@@]12CCN(C(=O)O[C@@H](C)C(F)(F)F)[C@@H]1CN(c1nc(C)cc(Nc3cc[nH]n3)n1)C2` [Example 1, (2S)-1,1,1-trifluoropropan-2-yl (3aR,6aR)-3a-metboxy-5-[4-methyl-6-(1H-pyrazol-3-ylamino)pyrimidin-2-yl]hexahydropyrrolo[3,4-b]pyrrole-1(2H)-carboxylate], the IC50 against Aurora B amounted to 730 nM; against Aurora A, 2.3 nM.

For `Cc1cc(Nc2cc[nH]n2)nc(N2C[C@@H]3[C@@H](C2)OCCN3C(=O)O[C@@H](C)C(F)(F)F)n1` [Example 2, (2S)-1,1,1-trifluoropropan-2-yl (4aR,7aR)-6-[4-methyl-6-(1H-pyrazol-3-ylamino)pyrimidin-2-yl]hexahydropyrrolo[3,4-b][1,4]oxazine-4(4aH)-carboxylate], the values for the 50% inhibitory concentration (IC50) at Aurora B and on Aurora A (setting [1]) were 85 nM and 1.3 nM, respectively.

With `Cc1cc(Nc2cc[nH]n2)nc(N2C[C@@H]3[C@@H](C2)OCCN3C(=O)OC(C)(C)C(F)(F)F)n1` [Example 3, 1,1,1-trifluoro-2-methylpropan-2-yl (4aR,7aR)-6-[4-methyl-6-(1H-pyrazol-3-ylamino)pyrimidin-2-yl]hexahydropyrrolo[3,4-b][1,4]oxazine-4(4aH)-carboxylate], the values for the half-maximal inhibitory concentration (IC50) against Aurora B and on Aurora A (setting [1]) were 870 nM and 5.4 nM, respectively.
